Measurements: patent publication US20150216182A1, “COMPOSITIONS AND METHODS OF THE ATTRACTION AND REPULSION OF INSECTS” (Olfactor Laboratories, Inc., priority 2012, published 2015)
Entries after “also recorded” stand apart in the source; their conditions may differ. Where two headings read alike, the source gives them in different places.

Assays:
[1] = test system: Aedes aegypti; assay: landing assay; type: in vivo; settings: mesh treated with 1% in acetone, FIG. 2; for number of landings: 5 minute time course
Description: Behavior assays were developed to aid in the evaluation of compounds and compositions of the present invention. These assays include the landing assay and the netsphere assay. These assays were utilized to determine the effectiveness of said compounds and compositions with regard to attracting or repelling mosquitoes of the species Aedes aegypti. Due to the highly conserved nature of the carbon dioxide receptor across the order Diptera, the results obtained for Aedes aegypti are likely to be intuitive with regard to other members of the mosquito family Culicidae as well as with regard to other dipteran family members.
The landing assay is an assay used to test for attraction toward human skin. A human gloved hand with an opening cutout protected by 2 layers of mesh was inserted into a 12×12×12 inch cage of female mosquitoes. The first layer of mesh was used to protect the human from chemical contact as well as mosquito contact. A second layer of mesh was treated with a chemical compound or composition that had been dissolved at a concentration of 1% in acetone and allowed to dry on said mesh for three minutes. This second layer of mesh was placed on top of the first mesh layer. The two mesh layers were separated by outer magnetic strips to hold the layers in place on the glove. This experimental design allows the test subjects, starved female mosquitoes, to be exposed to human skin odors as well as the compound or composition concurrently. The cage contained 30 female and 3 male mosquitoes. The landing of mosquitoes on the treated surface was videotaped over a 5 minute time course and the number of landings during that time period was recorded. Mesh treated with acetone alone was used as a negative control. This experiment was done in triplicate for each compound or composition tested. The results from one such experiment are pictured in FIG. 2.

[2] = test system: bed bugs; assay: bed bug luring assay; type: in vivo; settings: cottonball with 100 microliters solution, total 100 mg compound(s), 10 bed bugs, overnight
Description: Assays were conducted to measure the ability of compounds and compound combinations to attract bed bugs. A testing arena habitat comprising a small plastic container was placed inside of a larger, secondary container. The top half inch was removed from two bathroom sized solo cups and each cup was placed on opposite sides of the testing arena habitat, one inch away from the wall. Each outer part of the cup was textured using sandpaper, as bed bugs cannot climb smooth surfaces. A paper towel was used to line the floor of the testing arena habitat. The top, removed portion of one of the solo cups was placed mouth side down in the center of the arena. In one of the cups, a cottonball was placed and treated with 100 microliters of compound or compound combination solution [comprising a total of 100 mg of compound(s).] 10 bed bugs were placed within the center cut off cup top and the testing arena habitat was covered and placed within a dark, climate controlled room overnight. The next day, the number of bed bugs that crawled into the baited cup were recorded and the % attractancy was calculated as the percentage of bugs that crawled into the baited cup as compared to the total number of bed bugs. In the Table, “Att” refers to attractancy and “Cmpd” refers to compound.

[3] = test system: female mosquitoes; assay: whole plant or invertebrate; settings: 2 h; for mortality at 200 µg/mL: read-out: % mortality with 0.2 mg/ml; for mortality at 2000 µg/mL: read-out: % mortality with 2 mg/ml
[4] = test system: cpA neurons; assay: extracellular single-sensillum electrophysiology: activation of cpA neuronal activity; settings: for Class: Table 6, single compounds, increase over baseline cpA neuronal activity
[5] = test system: larvae; assay: larvicidal activity assay; type: in vivo; settings: for pest or weed control at 0.25 %: read-out: % Lethality with 0.25% compound conc.; for pest or weed control at 100 ppm: read-out: % Lethality at 100 ppm
Description: A 6-well plate (Corning Life Sciences, Tewksbury, Mass.) is used to test a compound's larvicidal activity. […] After a 24 hour exposure, the number of dead larvae are counted and recorded.
The results are presented in Table 17 as % lethality (the number of dead larvae divided by the total number of larvae).

[6] = test system: Aedes aegypti mosquitoes; assay: netsphere assay; type: in vivo; settings: baited BG-Sentinel trap, overnight collection; FIG. 3
Description: The netsphere assay was conducted in a semi-field containment area. The containment area was 1,000 square feet in size and environmental cues such as temperature, humidity, lighting and airflow were controlled to replicate conditions that Aedes aegypti mosquitoes would encounter in the wild. The containment area was conditioned for 2 hours prior to experimentation to allow for equalization of environmental conditions. Fifty female and five male mosquitoes were then released into the chamber and given one hour to acclimate to the environment. Following this, a BG-Sentinel trap (Biogents AG, Regensburg, Germany) was baited with either cyclopentanone, 2-pentanone or 2,4-lutidine and placed in the chamber in the presence of a non-baited BG-Sentinel (as a negative control for trap attraction). The collection was allowed to proceed overnight during which lighting conditions in the chamber were set to mimic those of starlight. The following day, mosquitoes caught in the trap were frozen at −20° C. and counted. These counts were compared to control experiments where CO2 from a tank, at a flow rate of 250 ml/min, was used as bait.

| SMILES | number of landings [1] [landings] | behaviour in landing assay (lure or repellent) [1] | % Att (bed bug attractancy) [2] [%] | mortality at 200 µg/mL [3] [%] | mortality at 2000 µg/mL [3] [%] | Class [4] | pest or weed control at 0.25 % ([5]; 0.25% compound, 24 hour exposure, dead larvae / total larvae) [%] | pest or weed control at 100 ppm ([5]; 100 ppm compound, 24 hour exposure, dead larvae / total larvae) [%] | behaviour in netsphere assay (attractant or repellent) [6] | Comp A Class ([4]; Table 9, component A tested individually) | Comp B Class ([4]; Table 9, component B tested individually) | Class B (activator class of the individual component) ([4]; Table 15, single component alone, Mod Actv) | pest or weed control at 100 ppm ([5]; 24 h) [%] | pest or weed control at 0.25 % ([5]; 24 h) [%] |
| --- | --- | --- | --- | --- | --- | --- | --- | --- | --- | --- | --- | --- | --- | --- |
| O=C1CCCC1 [OLI0008, cyclopentanone] | 39 | act as lures | 50 | 0 | 0 | Strong Activator (strong activators yield an increase in activity that is >60 spk/sec over baseline neuronal activity) | 85 | 0 | act as attractants; also recorded: attract mosquitoes |  |  |  |  |  |
| CCCC(C)=O [OLI0018, 2-pentanone] | 37 | act as lures | 30 | 0 | 0 | Moderate Activator (Moderate activators yield an increase in neuronal activity that is between 40 and 60 spk/sec over baseline neuronal activity) |  |  | act as attractants; also recorded: attract mosquitoes | Mod | Mod | Mod | 0 | 0 |
